Reference: PubChem BioAssay AID1963845 (Molecular Pharmacology Branch, DTP, NCI, 2024)

Tested on: 429239-143-T-J1-PDC complex spheroid viability
Assay: Anticancer human tumor 429239-143-T-J1-PDC patient-derived small cell lung carcinoma cell line growth inhibition [POLQ]
Settings: for IC50: curve of first compound; for viability, T/C: stronger effect = lower value
Protocol: Multicellular complex tumor spheroid response to Polymerase (POL) inhibitors (novobiocin, ART-558, RP6685) in combination with a variety of drugs and investigational agents in selected tumor cell lines
The POL inhibitors (novobiocin, ART-558, and RP6685) were evaluated both individually and in combination with standard of care and investigational anticancer small molecules within a complex spheroid model of solid tumors. . Complex spheroids include a stromal component modeled by human endothelial cells (HUVEC) and fibroblasts modeled by human mesenchymal stem cells (MSCs). The concentration ranges selected for each drug and investigational agent were based upon clinically achievable concentrations if the clinical Cmax of the agent was known.
Compounds. The drugs and investigational agents: novobiocin (NSC847541), ART-558 (NSC835418), RP-6685 (NSC848927), peposertib (NSC802822), ceralasertib (NSC780249), elimusertib (NSC800525), camonsertib (NSC841442), AZD-1390 (NSC803789), olaparib (NSC753686), talazoparib (NSC767125), rucaparib (NSC756644), sotorasib (NSC818433), MRTX-1133 (NSC836407), SN-38 (NSC673596), topotecan (NSC609699), epotoside (NSC141540), doxorubicin (NSC123127), gemcitabine (NSC613327), 5-fluorouracil (NSC19893), paclitaxel (NSC125973), vemurafenib (NSC761431), MSA-2 (NSC828583), SN-011 (NSC837082), adavosertib (NSC754352), prexasertib (NSC758257), carboplatin (NSC241240) and oxaliplatin (NSC266046), were obtained from the National Cancer Institute (NCI) Developmental Therapeutics Program Chemical Repository (21). The FDA-approved anticancer drug set is available from the Developmental Therapeutics Program at https://dtp.cancer.gov/organization/dscb/obtaining/. […] The stock solutions were prepared in dimethyl sulfoxide (DMSO, Sigma-Aldrich, St. Louis, MO, cat. D2650), except for the platinum compounds which were prepared in saline (Quality Biological, Gaithersburg, MD, cat. 114-055-101), at 800-fold the tested concentration and stored at -70 degrees C prior to their use. All drugs and investigational agents were tested over a range starting from a high concentration at or near the clinical Cmax and decreasing in half-log increments. If the clinical Cmax for an agent had not been determined, the highest concentration tested was 10 microM, except for SN-38, which was tested at a high concentration of 1 microM.
Cell Culture. All cells were maintained in an incubator at 37 degrees C and 5% CO2 with 95% humidity. The PDC lines were cultured according to standard operating procedures established by the NCI PDMR (https://pdmr.cancer.gov). Table 3 of the manuscript, lists the cell lines along with the number of the three cell types plated to form the mct-spheroids and media for tumor cell growth. After thawing, all PDC lines, except 997537-175-T-J1-PDC and 415267-285-R-J2-PDC, were cultured in Matrigel-coated flasks prepared with a working solution of 1X Ham's F-12 nutrient mix, without supplementation (Thermo Fisher Scientific, cat. 11765054), 100 U/mL penicillin-streptomycin (Thermo Fisher Scientific, cat. 15140122), and 2.5% Matrigel (Corning Inc., Corning, NY, cat. 354248) for the first three passages. The two PDC lines 997537-175-T-J1-PDC and 415267-285-R-J2-PDC were cultured on uncoated flasks. The 857933-349-R-J2-PDC line was cultured in 6C/Colon 1B media containing advanced DMEM/F-12 (Thermo Fisher Scientific, cat. 12634028), 10 mM HEPES (Thermo Fisher Scientific, cat. 15630080), 1X GlutaMAX supplement (Thermo Fisher Scientific, cat. 35050061), 0.1 mg/mL primocin (InvivoGen, San Diego, CA, cat. ant-pm-2), 10% defined fetal bovine serum, heat inactivated (HyClone Laboratories Inc., Logan, UT, cat. SH30070.03HI), 50% L-WRN conditioned media (ATCC, cat. CRL-3276), 1.25 mM N-Acetyl-L-cysteine (Sigma-Aldrich, cat. A9165), 10 mM nicotinamide (Sigma-Aldrich, cat. N0636), 1X B-27 supplement (Thermo Fisher Scientific, cat. 17504044), 1X N-2 supplement (Thermo Fisher Scientific, cat. […]
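Further: luminescence signal used as surrogate measure of viable cells; spheroids exposed to compounds for seven days before readout.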
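Wherever viability, T/C is given: 100% = DMSO vehicle control viability as luminescence relative to vehicle.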

SMILES: COc1cc(C2c3cc4c(cc3C(OC3OC5COC(C)OC5C(O)C3O)C3COC(=O)C23)OCO4)cc(OC)c1O (configuration not stated) + COC1C(OC(N)=O)C(O)C(Oc2ccc3c(O)c(NC(=O)c4ccc(O)c(CC=C(C)C)c4)c(=O)oc3c2C)OC1(C)C
- IC50 (second compound 0.0316 µM): 302 nM
- IC50 (second compound 0.1 µM): 249 nM
- IC50 (second compound 0.316 µM): 417 nM
- IC50 (second compound 1 µM): 325 nM
- IC50 (second compound 3.16 µM): 349 nM
- IC50 (second compound 10 µM): 274 nM
- viability, T/C (second compound 0.0316 µM, first compound 0.0316 µM): 101%
- viability, T/C (second compound 0.0316 µM, first compound 0.1 µM): 81.2%
- viability, T/C (second compound 0.0316 µM, first compound 0.316 µM): 53%
- viability, T/C (second compound 0.0316 µM, first compound 1 µM): 15.8%
- viability, T/C (second compound 0.0316 µM, first compound 3.16 µM): 18.2%
- viability, T/C (second compound 0.0316 µM, first compound 10 µM): 16.6%
- viability, T/C (second compound 0.1 µM, first compound 0.0316 µM): 106%
- viability, T/C (second compound 0.1 µM, first compound 0.1 µM): 72%
- viability, T/C (second compound 0.1 µM, first compound 0.316 µM): 47.9%
- viability, T/C (second compound 0.1 µM, first compound 1 µM): 22%
- viability, T/C (second compound 0.1 µM, first compound 3.16 µM): 18.2%
- viability, T/C (second compound 0.1 µM, first compound 10 µM): 18.1%
- viability, T/C (second compound 0.316 µM, first compound 0.0316 µM): 88.1%
- viability, T/C (second compound 0.316 µM, first compound 0.1 µM): 85.3%
- viability, T/C (second compound 0.316 µM, first compound 0.316 µM): 59.4%
- viability, T/C (second compound 0.316 µM, first compound 1 µM): 20.4%
- viability, T/C (second compound 0.316 µM, first compound 3.16 µM): 16.6%
- viability, T/C (second compound 0.316 µM, first compound 10 µM): 16.1%
- viability, T/C (second compound 1 µM, first compound 0.0316 µM): 90.8%
- viability, T/C (second compound 1 µM, first compound 0.1 µM): 75.5%
- viability, T/C (second compound 1 µM, first compound 0.316 µM): 54%
- viability, T/C (second compound 1 µM, first compound 1 µM): 18.6%
- viability, T/C (second compound 1 µM, first compound 3.16 µM): 14%
- viability, T/C (second compound 1 µM, first compound 10 µM): 17%
- viability, T/C (second compound 3.16 µM, first compound 0.0316 µM): 88.4%
- viability, T/C (second compound 3.16 µM, first compound 0.1 µM): 88.9%
- viability, T/C (second compound 3.16 µM, first compound 0.316 µM): 52.4%
- viability, T/C (second compound 3.16 µM, first compound 1 µM): 20.3%
- viability, T/C (second compound 3.16 µM, first compound 3.16 µM): 17%
- viability, T/C (second compound 3.16 µM, first compound 10 µM): 13.7%
- viability, T/C (second compound 10 µM, first compound 0.0316 µM): 97.4%
- viability, T/C (second compound 10 µM, first compound 0.1 µM): 79.1%
- viability, T/C (second compound 10 µM, first compound 0.316 µM): 47.7%
- viability, T/C (second compound 10 µM, first compound 1 µM): 18.9%
- viability, T/C (second compound 10 µM, first compound 3.16 µM): 23%
- viability, T/C (second compound 10 µM, first compound 10 µM): 14.2%
